According to paper PMC3667390 (Cancer immunology, immunotherapy : CII, 2009):

Test system: peptide-specific CD4 T cells
Assay type: cell-based, human
Conditions: ELIspot and proliferation; peptide 10 μg/ml, CEA protein 1 μg/ml, 20-24 hours; day 15 of in vitro stimulation; three replicates

MELLLVNKLKWNLAA [Peptide C140]
reactivity of peptide-specific CD4 T cells: did not respond
